Columns and labels:
Format in all cases: ADME, organism-based
[1] = Drug excretion in Sprague-Dawley rat feces treated with saikosaponin a at 15 mg/kg, iv by LC-DAD-IT-TOF-MS analysis; set-up: dose 15 mg/kg, route intravenous; conditions: in vivo
[2] = Drug excretion in Sprague-Dawley rat feces treated with saikosaponin a at 50 mg/kg, po administered through gavage by LC-DAD-IT-TOF-MS analysis; set-up: dose 50 mg/kg, route oral; conditions: in vivo
Rattus norvegicus = species: Rattus norvegicus; assay: Drug level in Sprague-Dawley rat assessed as retention time treated with saikosaponin a by LC-DAD-IT-TOF-MS analysis
[3] = Drug excretion in Sprague-Dawley rat urine treated with saikosaponin a at 50 mg/kg, po administered through gavage by LC-DAD-IT-TOF-MS analysis; set-up: dose 50 mg/kg, route oral; conditions: in vivo
[4] = Drug excretion in Sprague-Dawley rat bile treated with saikosaponin a at 15 mg/kg, iv by LC-DAD-IT-TOF-MS analysis; set-up: dose 15 mg/kg, route intravenous; conditions: in vivo
[5] = Drug recovery in po dosed rat excreted feces measured over 0 to 24 hrs after drug administration by HPLC analysis relative to starting drug dose; conditions: faeces, read-out: Drug recovery
Plasma [6] = assay: Drug level in Sprague-Dawley rat plasma treated with saikosaponin a at 15 mg/kg, iv by LC-DAD-IT-TOF-MS analysis; set-up: dose 15 mg/kg, route intravenous; conditions: in vivo
[7] = Drug excretion in Sprague-Dawley rat urine treated with saikosaponin a at 15 mg/kg, iv by LC-DAD-IT-TOF-MS analysis; set-up: dose 15 mg/kg, route intravenous; conditions: in vivo
[8] = Drug excretion in Sprague-Dawley rat bile treated with saikosaponin a at 50 mg/kg, po administered through gavage by LC-DAD-IT-TOF-MS analysis; set-up: dose 50 mg/kg, route oral; conditions: in vivo
Plasma [9] = assay: Drug level in Sprague-Dawley rat plasma treated with saikosaponin a at 50 mg/kg, po administered through gavage by LC-DAD-IT-TOF-MS analysis; set-up: dose 50 mg/kg, route oral; conditions: in vivo

| Structure (SMILES) | Drug excretion [1] | Drug excretion [2] | Retention_time (Rattus norvegicus) [min] | Drug excretion [3] | Drug excretion [4] | dose excreted [5] [%] | Drug metabolism (Plasma [6]) | Drug excretion [7] | Drug excretion [8] | Drug metabolism (Plasma [9]) |
| --- | --- | --- | --- | --- | --- | --- | --- | --- | --- | --- |
| C[C@H]1O[C@@H](O[C@H]2CC[C@@]3(C)[C@@H](CC[C@]4(C)[C@@H]3CC=C3[C@@H]5CC(C)(C)CC[C@]5(CO)[C@@H](O)C[C@]34C)[C@]2(C)CO)[C@H](O)[C@@H](O[C@@H]2O[C@H](CO)[C@@H](O)[C@H](O)[C@H]2O)[C@H]1O |  |  | 22.9 |  | metabolite_detected |  |  |  |  |  |
| C[C@H]1O[C@@H](O[C@H]2CC[C@@]3(C)[C@@H](CC[C@]4(C)[C@@H]3C=C[C@]35OC[C@@]6(CCC(C)(C)C[C@H]63)[C@@H](O)C[C@]54C)[C@]2(C)CO)[C@H](O)[C@@H](O)[C@H]1O | metabolite_detected | metabolite_detected | 45.5 | metabolite_detected | metabolite_detected | > 50 | metabolite_detected | metabolite_detected | metabolite_detected | metabolite_detected |
| CC1(C)CC[C@]23CO[C@@]4(C=C[C@@H]5[C@@]6(C)CCC(=O)[C@@](C)(CO)[C@@H]6CC[C@@]5(C)[C@]4(C)C[C@@H]2O)[C@@H]3C1 |  | metabolite_detected | 52.3 | metabolite_detected |  |  |  |  |  |  |
| CC1(C)CC[C@]23CO[C@@]4(C=C[C@@H]5[C@@]6(C)C=C[C@H](O)[C@@](C)(CO)[C@@H]6CC[C@@]5(C)[C@]4(C)C[C@@H]2O)[C@@H]3C1 |  | metabolite_detected | 53.7 | metabolite_detected |  |  |  |  |  |  |

Continued, values first:

| Drug excretion [1] | Drug excretion [2] | Retention_time (Rattus norvegicus) [min] | Drug excretion [3] | Drug excretion [4] | dose excreted [5] [%] | Drug metabolism (Plasma [6]) | Drug excretion [7] | Drug excretion [8] | Drug metabolism (Plasma [9]) | Structure (SMILES) |
| --- | --- | --- | --- | --- | --- | --- | --- | --- | --- | --- |
| metabolite_detected | metabolite_detected | 18.4 | metabolite_detected |  |  |  |  |  |  | CC1(C)CC[C@]23CO[C@@]4(C=C[C@@H]5[C@@]6(C)CC[C@H](O)[C@@](C)(CO)[C@@H]6CC[C@@]5(C)[C@]4(C(=O)O)C[C@@H]2O)[C@@H]3C1 |
| metabolite_detected | metabolite_detected | 48.3 | metabolite_detected |  | > 50 |  |  |  |  | CC1(C)CC[C@]23CO[C@@]4(C=C[C@@H]5[C@@]6(C)CC[C@H](O)[C@@](C)(CO)[C@@H]6CC[C@@]5(C)[C@]4(C)C[C@@H]2O)[C@@H]3C1 |
